Here are results for 1 molecule from BindingDB's records for doi:10.1016/j.bmc.2018.08.021 (Zhengzhou University, 2018).

The term IC50 denotes the concentration that gives 50% inhibition.

A short description of data set [1]: Inhibition of ABCB1 in human SW620/Ad300 cells assessed as potentiation of cisplatin-induced cytotoxicity by measuring cisplatin IC50 at 4 uM after 72 hrs by MTT assay (Rvb = 0.61 +/- 0.03 microM).
The nature of data set [2]: Inhibition of ABCB1 in human SW620/Ad300 cells assessed as potentiation of cisplatin-induced cytotoxicity by measuring cisplatin IC50 at 10 uM after 72 hrs by MTT assay (Rvb = 0.61 +/- 0.03 microM). (In general: Tetrazolium assays rely on reduction of a dye to a coloured formazan, in cell work by metabolically active cells.)
Data set [3] can be described thus: Inhibition of ABCB1 in human SW620/Ad300 cells assessed as potentiation of cisplatin-induced cytotoxicity by measuring cisplatin IC50 at 20 uM after 72 hrs by MTT assay (Rvb = 0.61 +/- 0.03 microM).
Data set [4] is described as follows: Inhibition of ABCB1 in human SW620/Ad300 cells assessed as potentiation of paclitaxel-induced cytotoxicity by measuring paclitaxel IC50 at 4 uM after 72 hrs by MTT assay (Rvb = 3.39 +/- 0.84 microM).
The nature of data set [5]: Inhibition of ABCB1 in human SW620/Ad300 cells assessed as potentiation of paclitaxel-induced cytotoxicity by measuring paclitaxel IC50 at 10 uM after 72 hrs by MTT assay (Rvb = 3.39 +/- 0.84 microM).
Data set [6] is described as follows: Inhibition of ABCB1 in human SW620/Ad300 cells assessed as potentiation of paclitaxel-induced cytotoxicity by measuring paclitaxel IC50 at 20 uM after 72 hrs by MTT assay (Rvb = 3.39 +/- 0.84 microM).
Data set [7] is described as follows: Inhibition of ABCB1 in human SW620/Ad300 cells assessed as potentiation of doxorubicin-induced cytotoxicity by measuring doxorubicin IC50 at 4 uM after 72 hrs by MTT assay (Rvb = 6.15 +/- 0.63 microM).
Data set [8] can be described thus: Inhibition of ABCB1 in human SW620/Ad300 cells assessed as potentiation of doxorubicin-induced cytotoxicity by measuring doxorubicin IC50 at 10 uM after 72 hrs by MTT assay (Rvb = 6.15 +/- 0.63 microM).
The nature of data set [9]: Inhibition of ABCB1 in human SW620/Ad300 cells assessed as potentiation of doxorubicin-induced cytotoxicity by measuring doxorubicin IC50 at 20 uM after 72 hrs by MTT assay (Rvb = 6.15 +/- 0.63 microM).
Data set [10] can be described thus: Inhibition of ABCB1 (unknown origin) expressed in HEK293T cells assessed as potentiation of cisplatin-induced cytotoxicity by measuring cisplatin IC50 at 4 uM after 72 hrs by MTT assay (Rvb = 7.22 +/- 0.45 microM).
Data set [11] can be described thus: Inhibition of ABCB1 (unknown origin) expressed in HEK293T cells assessed as potentiation of cisplatin-induced cytotoxicity by measuring cisplatin IC50 at 10 uM after 72 hrs by MTT assay (Rvb = 7.22 +/- 0.45 microM).
Data set [12] can be described thus: Inhibition of ABCB1 (unknown origin) expressed in HEK293T cells assessed as potentiation of cisplatin-induced cytotoxicity by measuring cisplatin IC50 at 20 uM after 72 hrs by MTT assay (Rvb = 7.22 +/- 0.45 microM).
A short description of data set [13]: Inhibition of ABCB1 (unknown origin) expressed in HEK293T cells assessed as potentiation of paclitaxel-induced cytotoxicity by measuring paclitaxel IC50 at 4 uM after 72 hrs by MTT assay (Rvb = 0.09 +/- 0.02 microM).
Data set [14] can be described thus: Inhibition of ABCB1 (unknown origin) expressed in HEK293T cells assessed as potentiation of paclitaxel-induced cytotoxicity by measuring paclitaxel IC50 at 10 uM after 72 hrs by MTT assay (Rvb = 0.09 +/- 0.02 microM).
Data set [15] can be described thus: Inhibition of ABCB1 (unknown origin) expressed in HEK293T cells assessed as potentiation of paclitaxel-induced cytotoxicity by measuring paclitaxel IC50 at 20 uM after 72 hrs by MTT assay (Rvb = 0.09 +/- 0.02 microM).
Data set [16] in a line: Inhibition of ABCB1 (unknown origin) expressed in HEK293T cells assessed as potentiation of doxorubicin-induced cytotoxicity by measuring doxorubicin IC50 at 4 uM after 72 hrs by MTT assay (Rvb = 1.17 +/- 0.09 microM).
Data set [17] in a line: Inhibition of ABCB1 (unknown origin) expressed in HEK293T cells assessed as potentiation of doxorubicin-induced cytotoxicity by measuring doxorubicin IC50 at 10 uM after 72 hrs by MTT assay (Rvb = 1.17 +/- 0.09 microM).
Data set [18] can be described thus: Inhibition of ABCB1 (unknown origin) expressed in HEK293T cells assessed as potentiation of doxorubicin-induced cytotoxicity by measuring doxorubicin IC50 at 20 uM after 72 hrs by MTT assay (Rvb = 1.17 +/- 0.09 microM).

For the molecule `O=c1cc(-c2ccccc2)[nH]c2nc(SCc3nc4ccccc4[nH]3)nn12`, the half-inhibitory concentration (IC50) is 1590 nM in data set [1]; 1550 nM in data set [2]; 1640 nM in data set [3]; 830 nM in data set [4]; 1470 nM in [5]; 660 nM in data set [6]. The IC50 came to 920 nM in data set [7]; 1280 nM in [8]; 800 nM in [9]; 7100 nM in [10]; 8260 nM in [11]; 7160 nM in data set [12]. Further, the IC50 in data set [13] worked out at 30 nM; in [14] it was 50 nM; in data set [15], 40 nM; in data set [16], 290 nM; in [17], 380 nM; in [18] it was 290 nM.
